From patent US20080280987A1, “Methods of inhibiting angiogenesis and treating angiogenesis-associated diseases” (priority 2006, published 2008)
In brackets after ≈: the same amount, converted by molar mass.

Key:
[1] = system: established HT-29 colon cell tumors; assay: Anti-tumor activity in HT-29 xenograft mouse model; assay type: in vivo; settings: 100 mg/kg every day for 4 doses, tumors 900 mm^3
Procedure: The anti-tumor activity of Nab-5404 and Nab-5676 was evaluated in a xenograft mouse model. The compounds were tested against established HT-29 colon cell tumors in vivo in two cycles, the first a low-dosage schedule followed by a second high-dosage schedule. Irinotecan was used as a positive control in the study. Mice (n=10) were separated into 8 groups with Nab-5404 and Nab-5676 mice receiving the compounds by intravenous injection. The first cycle consisted of administration of Nab-5404 or Nab-5676 every 3 days for 4 doses for days 0-14 followed by the second cycle which consisted of administration of Nab-5404 or Nab-5676 every 3 days for 4 doses for days 15-30. Irinotecan was administered by intravenous injection at a dose of 60 mg/kg every 3 days for 4 doses. The individual groups are shown in Table 2, wherein 1st cycle refers to days 0-14 and 2nd cycle refers to days 15-30.
Combretastatin 4-phosphate (CA4P) was also administered to HT-29 tumor-bearing mice in a separate experiment. The mice (n=10) were treated once tumors reached 900 mm^3 with either vehicle or CA4P at the reported MTD of 100 mg/kg on a schedule of every day for 4 doses.

[2] = system: established HT-29 colon cell tumors; settings: mice, every day for 4 doses; cited from earlier work
[3] = system: human endothelial cells co-cultured with human fibroblast cells; assay: Microvessel/tubule formation and disruption assay, TCS CellWorks AngioKit model; assay type: cell-based; settings: treated on day 11, stained on day 12
Procedure: To study the effect of Nab-5404 and Nab-5676 on angiogenesis, the compounds were evaluated in a microvessel formation assay using a TCS CellWorks AngioKit model (TCS CellWorks Ltd., Botolph Claydon, Buckingham UK). The AngioKit model uses human endothelial cells co-cultured with other human cells. The endothelial cells initially form small islands within the culture matrix, then begin to proliferate and then enter a migratory phase during which they move through the matrix to form threadlike tubule structures. These gradually join up to form a network of tubules which closely resemble a capillary bed (at day 9-11). The tubules stain positive for von Willebrand's factor, CD31 (PECAM-1) and ICAM-2.
In addition to Nab-5404 and Nab-5676, a known vascular targeting agent, combretastatin 4-phosphate (CA4P), was tested for in vitro anti-angiogenic activity. The TCS CellWorks AngioKit model was used according to the manufacturer's instructions. As outlined above, human endothelial cells were co-cultured with human fibroblast cells in a 24 well plate and exposed to Nab-5404, Nab-5676 or CA4P across a range of concentrations (0.01 to 100 μg/ml). […] The length of the tubules was analyzed using ImagePro software and the IC50 of each compound was calculated using Prism software. […]

COc1ccc(/C=C\c2cc(OC)c(OC)c(OC)c2)cc1OP(=O)(O)O [CA4P, combretastatin 4-phosphate]
Activity in HT-29 tumor model [1]: inactive
Reported MTD [2]: 100 mg/kg
IC50 disrupting established tubules (tubule length) [3]: 3 ng/mL (≈ 7.57 nM)
